A melting point compilation (Tetko et al.; mined from patent text by program, amines drawn as free bases though some values may be those of a salt)

| melting point [°C] | SMILES |
| --- | --- |
| 198 | CS(=O)c1ccc(-c2nn(Cc3ccc(F)cc3)c(=O)cc2-c2ccc(F)cc2)cc1 (stereo unspecified) |
| 102 to 103 | CCOC(=O)CNC(=O)Oc1c(C)n(CC)ccc1=O |
| 118 | NC(=S)N1CCN(C=O)CC1 |
| 172 to 174 | C=CCNc1cc(C)nc2cn[nH]c12 |
| 254 | Nc1nc(N)c(N=O)c(OCC2CCCCC2)n1 |
| 270 to 271 | O=C(CNC(=O)c1n[nH]cc1NC(=O)c1ccccn1)c1ccccc1 |
| 142 to 145 | Cn1ncnc1COc1nc2c(cc1-c1ccc(F)cc1)nnn2-c1ccccc1F |
| 51 to 53 | COc1ccc(OC(C)=O)c2ccccc12 |
| 176 to 178 | CSc1nc(-c2ccncc2)cc(=O)n1C |
| 139 to 140 | CCCc1nn(-c2ccc(C(F)(F)F)cn2)cc1CCCOc1cc(CC(=O)O)cc(OC)c1 |
| 128 to 132 | CC(=O)N(C)C[C@H]1CN(c2ccc(N3CCC(=CC#N)CC3)c(F)c2)C(=O)O1 |
| 231 to 233 | CS(=O)(=O)c1ccc(-c2cnn(-c3ccc(F)cc3)c(=O)c2C2CCCCC2)cc1 |
| 280 to 282 | COc1ccc(-n2cc(/C=C(\C#N)C(=O)NS(C)(=O)=O)c(-c3ccc(Cl)c(F)c3)n2)cc1Cl |
| 90 to 105 | Cc1cc(C2(c3ccc(O)cc3)c3ccccc3-c3ccccc32)cc(C)c1O |
| 165 to 167 | CCOCc1nc2c(N)nc(C)c(C)c2n1CCC1CCN(Cc2ccccc2)CC1 |
| 43 to 44 | Clc1ccc2onc(Cl)c2c1 |
| 166 to 168 | O=C1NCCC(C(=O)c2ccc(Cc3ccc(F)cc3)o2)=C1O |
| 140 to 144 | CC1C(c2ccc(Cl)cc2Cl)CC(=O)N1O (stereo unspecified) |
| 162 | CC(C)(C)OC(=O)N1C[C@@H]2SCCC(c3ccccc3)(c3ccccc3)[C@@H]2C1 (racemic) |
| 87 to 88 | COc1cc(OC)c2ccccc2c1O |
| 144 to 145 | CC(C)(C)OC(=O)N1CCC(Cc2c[nH]c3ccc(F)cc23)CC1 |
| 259 to 261 | O=C1Nc2ccc([N+](=O)[O-])cc2C(=O)N2CCC[C@@H]12 |
| 86 to 90 | Cc1cccc(C2(O)CCN(C)CC2)c1 |
| 239 to 242 | Oc1ccc2c(c1)COc1c-2cc2ccc(O)cc2c1-c1ccc(Cl)cc1 |
| 106 to 108 | OCc1ccc(Br)c(CO)c1 |

| melting point [°C] | SMILES |
| --- | --- |
| 211 | O=C(C=Cc1ccc(C(F)(F)F)cc1)N1CCc2c([nH]c3ccccc23)C1c1ccccc1 (stereo unspecified) |
| 193 to 195 | CN(Cc1cccc2c1C(=O)N(C1CCC(=O)NC1=O)C2=O)C(=O)Nc1cccc(Cl)c1 (stereo unspecified) |
| 173 to 175 | Nc1nc2ccc(Cc3ccccc3)cc2s1 |
| 121 to 122 | C[C@H]1COS(=O)(=O)N1C(=O)OC(C)(C)C |
| 199 to 201 | O=C(O)c1ccc(C(Cc2ccc(F)cc2)C(=O)Nc2nc3ccccc3o2)cc1 (stereo unspecified) |
| 66 to 67 | CCOC(=O)C(C)c1ccc2oc(C(=O)c3ccc(Cl)cc3)nc2c1 (stereo unspecified) |
| 71 to 72 | CCCCCCc1c(C(C)C)nc(C(C)C)c(CO)c1-c1ccccc1 |
| 139 to 140 | O=C(O)c1ccccc1Oc1cc(Cl)c(Cl)cc1NS(=O)(=O)c1cc(C(F)(F)F)cc(C(F)(F)F)c1 |
| 38 to 39 | COc1cc(C)ccc1OCc1ccccc1 |
| 166 to 168 | O=C(O)COc1ccc(C(=O)c2cccc(F)c2)c(Cl)c1Cl |
| 207 to 209 | CC(C)c1c(C=CC2CC(O)CC(O)O2)n(CC2CCCCC2)c(=O)c2ccccc12 (mixture of isomers) |
| 132 | CC(C)(Oc1ccc2c(-c3ccc(Cl)cc3)noc2c1)C(=O)O |
| 128 to 132 | N#Cc1c(N2CCCN(c3ccccc3)CC2)cc[nH]c1=S |
| 168 to 170 | N#Cc1cc(N)cc([N+](=O)[O-])c1 |
| 94 to 100 | CN1CCN(c2cc(Cl)cc3c2c(=O)n(Cc2ccncc2)c(=O)n3Cc2ccccc2)CC1 |
| 199 to 202 | CC(=C(Cl)Cl)c1cc(N)c(S(N)(=O)=O)cc1S(N)(=O)=O |
| 93 to 96 | Cc1ccoc1C(=O)Nc1c(C)cc(N2CCCOCC2)nc1N1CC[C@@H](F)C1 |
| 150 to 151 | CCOC(=O)Nc1c(OC)cc(CC(C#N)=CNc2ccccc2)cc1OC |
| 157 to 160 | O=C(Oc1ccccc1C(=O)Nc1cc(Cl)c(OC(=O)c2ccccc2)c(Cl)c1)c1ccccc1 |
| 87 | CCCC1CCc2c3c(c(F)c(F)c2O1)OC(C)C3 (stereo unspecified) |
| 158 to 159 | Cc1ccc(N2CCC3CCc4cnccc4C3=N2)cc1 (stereo unspecified) |
| 82 to 83.5 | CNC(=C[N+](=O)[O-])NCCOc1cccc(CCCN(C)C)c1 |
| 234 to 236 | O=C(O)CCN1Cn2cc(C(=O)O)cc2-c2ccccc21 |
| 217 to 218 | Cc1nc2cc(NC(=O)c3cc4cc(F)ccc4n3Cc3cccc(F)c3)ccn2c1-c1ccccc1 |
| 192 to 194 | Cc1ccc(-c2nn(CCO)c(=O)c(-c3ccccc3)c2-c2ccc(C)cc2)cc1 |

| melting point [°C] | SMILES |
| --- | --- |
| > 290 | CCCn1c(=O)c2[nH]c(/C=C/c3ccc(Cl)cc3)nc2n(CCC)c1=O |
| 175 to 185 | O=C(Nc1cccc2c(-n3ccnc3)c(Br)cnc12)c1c(-n2ccnc2)cccc1-n1ccnc1 |
| 140 | CCOC(=O)Nc1coc2cc(OCc3ccccc3)ccc12 |
| > 310 | Cn1cnnc1SC1=C(c2cc(Cl)ccc2O)C2C=C(C(F)(F)F)C=CC2NC1=O (stereo unspecified) |
| 146 to 148 | CCCCCCCCCCCCCCCCOc1cc(O)c(NC(C)=O)cc1C12CC3CC(CC(C3)C1)C2 |
| 138 to 141 | O=C1CCCN1CCCn1cnc2cnc3cc(-c4ccccc4)ccc3c21 |
| 248 | CCCC(=O)N1CCN(C(=O)OC2C3=C(SCCS3)C(=O)N2c2ccc3ccc(Cl)nc3n2)CC1 (stereo unspecified) |
| 177 to 179 | c1cc(NC2=NCCN2)ccc1Cc1ccc(N2CCOCC2)cc1 |
| 92 to 94 | CCCCCc1c(C(C)C)nc(C(C)C)c(CO)c1-c1ccc(C)cc1 |
| 305 to 315 | Cc1cc2c(s1)c(=O)c(C(=O)O)cn2C |
| 160 to 163 | CC(C)N1C(=O)C2CC2(c2ccc(N)cc2)C1=O (stereo unspecified) |
| 140 to 144 | CC(C)C(O)c1cc2ccncc2[nH]1 (stereo unspecified) |
| 154 to 157 | CSCC(C)(CN)C(=O)N(C)c1nnc(-c2cncc(F)c2)s1 (stereo unspecified) |
| 204 to 206 | CC(=O)SCC(Cc1ccccc1)C(=O)Nc1cc(C(=O)O)ccc1Cl (stereo unspecified) |
| 192 to 196 | CN(C(=S)n1cc(F)c(N)nc1=O)c1ccccc1 |
| 265 to 267 | Fc1ccc(-c2[nH]nc(-c3ccccc3)c2-c2ccncc2)cc1 |
| 106 | OC(=S)Cc1ccc(Cl)cc1 |
| 73 to 75 | CCNC(=O)n1nc(Oc2cc(OCC)ccc2[N+](=O)[O-])cc1C |
| 159 to 160 | COc1cc(OC)cc(-c2ncn(C)c2-c2cc(F)c(F)c(F)c2)c1 |
| 249 to 251 | CS(=O)(=O)c1ccc(-c2cnn(-c3ccc(Cl)s3)c(=O)c2-c2ccc(Cl)cc2)cc1 |
| 188 to 191 | C#CCNC(=O)c1ccccc1Nc1nc(Cl)ncc1Cl |
| 281 to 282 | Cc1cc(-c2cnn3c(O)ncnc23)ccc1S(C)=O (stereo unspecified) |
| 211 to 213 | COc1cccc(CNC(=O)c2nc3c(cc(C)n3S(C)(=O)=O)c(=O)[nH]2)c1 |
| 174 to 175 | O=C(NCCN1CCOCC1)N1CCN2C(=O)OC(c3ccccc3)(c3ccccc3)C2C1 (stereo unspecified) |
| 50 | COC(=O)CCCOc1cccc(CNC(=O)C2Cc3ccccc3N2S(=O)(=O)c2ccc(-c3cccc(C(F)(F)F)c3)cc2)c1 (stereo unspecified) |

| melting point [°C] | SMILES |
| --- | --- |
| 185 to 186 | CCOCc1nc2c(N)nc3cc(N4CCC4=O)ccc3c2n1CCCOC(C)C |
| 230 to 233 | Cc1c(C(=O)Nc2ccc(N3CCC(N(CCO)CCO)CC3)c(C#N)c2)cnn1-c1ccc(Cl)cc1 |
| 195 to 196 | CC(C)(C)c1cc(OCc2n[nH]c(=S)o2)cc(C(C)(C)C)c1O |
| 230 to 234 | Cc1nc2c(N)cc(C(=O)N(C)C)cc2n1C |
| 184 to 185 | O=C1CN(c2ccccc2)C(=O)N1C(=O)c1ccccc1Cl |
| 76 to 78 | COc1ccc(C(=O)c2ccc(CBr)cc2)cc1 |
| 154 to 155 | C[C@@H]1CC[C@H](C(=O)O)Cc2onc(-c3ccc(Cl)cc3)c21 (relative stereo) |
| 176 to 182 | OCC1CCc2ncsc2C1 (stereo unspecified) |
| 118 to 122 | C=Cc1ccc(Nc2nc(Cl)nc(OC)n2)cc1 |
| 155 to 156 | C=CCN(CC=C)Cc1c(-c2ccccc2)sc(N)c1C(=O)c1ccc(Cl)cc1 |
| 126 to 129 | COC(=O)c1ccc(C(=O)CCC(=O)c2ccc3c(c2)C(C)(C)CCC3(C)C)cc1 |
| 182 | Cn1c(=O)cc(-c2cccc(Cl)c2)c2cc(Br)ccc21 |
| 146 to 150 | CC(C)c1cccc(C(C)C)c1NC(=O)NCC1(c2ccc3ccccc3c2)CCC1 |
| 149 to 150 | CCOc1ccc(-c2ccc(OC(CC)CCN3CCN(c4cncs4)CC3)cc2)cc1 (stereo unspecified) |
| 186 | COC(=O)C1(NC(=O)Cc2cc(-c3ccc(Cl)cc3)ccc2C)CCC(F)(F)CC1 |
| 120 to 122 | CNC(=O)c1ccccc1-c1cc(C)no1 |
| 131 to 136 | COC(=O)c1cc(C2CCCO2)c(C(F)(F)F)cc1N (stereo unspecified) |
| 118 | NC(=S)C1CCCc2cc3c(nc21)CCC3 (stereo unspecified) |
| 70 to 73 | OC1CSC(Oc2ccccc2-n2ccc3ccccc32)C(O)C1O (stereo unspecified) |
| 202 to 205 | COc1cc2c(cc1OC)CCC(C(=N)NO)=C2 |
| 93 to 94 | O=C(Cl)N1CC(Oc2ccc(F)cc2Cl)C1 |
| 91 | Cc1c(F)c(F)c(COC(=O)C(c2cnc(C(C)(C)C)nc2)C(C)(C)C)c(F)c1F (racemic) |
| 114 to 116 | CN(Cc1cc(C(F)(F)F)cc(C(F)(F)F)c1)C(=O)c1cnc(CC#N)nc1-c1ccccc1 |
| 102 to 103 | C#Cc1cnn2c(C(F)(F)F)cc(-c3ccc(Cl)cc3)nc12 |

| SMILES | melting point [°C] |
| --- | --- |
| Cc1onc(OC2CN3CCC2CC3)c1Cl (stereo unspecified) | 37 to 38 |
| CCCCCCCCCCCCn1nnc(C(=O)O)n1 | 122 to 124 |
